Assay results reported in patent publication US6924314B2, “Compounds for the treatment of metabolic disorders” (Wellstat Therapeutics Corporation, priority 2001, dated 2005).

Key:
db/db mice [1] = test: Antidiabetic effects in db/db mice, second experiment, 8 weeks of treatment; type: in vivo
Text: (§1) Blood samples were obtained via the retro-orbital sinus for serum chemistry analysis, or via the tail vein for glucose measurement with a test strip and glucometer.
Groups consisted of 6-8 mice each.

db/db mice [2] = test: Antidiabetic effects in db/db mice, 2 weeks (Example I); type: in vivo, C57BL/Ksola mice; conditions: for Glucose / Glucose (% of Control): nonfasting; for Free Fatty Acids ± SEM / Triglycerides ± SEM: serum
Text: (§2) db/db mice have a defect in leptin signaling, leading to hyperphagia, obesity and diabetes. Moreover, unlike ob/ob mice on a C57BL/6J background, db/db mice on a C57BL/KS background undergo failure of their insulin-producing pancreatic islet β cells, resulting in progression from hyperinsulinemia (associated with peripheral insulin resistance) to hypoinsulinemic diabetes.
(§3) A minimum of 7 days was allowed for adaptation after arrival.
Treatment cohorts were given daily oral doses of (1% hydroxypropylmethylcellulose), Compounds BI, BO, BP, BQ or BR for 2 weeks. At the end of the treatment period 100 μl of venous blood was withdrawn in a heparinized capillary tube from the retro-orbital sinus of db/db mice for serum chemistry analysis.

db/db mice [3] = test: Antidiabetic effects in db/db mice, 2 weeks (Example J); type: in vivo, C57BL/Ksola mice
Text: as §2, with “islet” for “islet β”
as §3
Treatment cohorts were given daily oral doses of Vehicle (1% hydroxypropylmethylcellulose), Compounds BI, BS, BT, BU, BV or Fenofibrate for 2 weeks. At the end of the treatment period 100 μl of venous blood was withdrawn in a heparinized capillary tube from the retro-orbital sinus of db/db mice for serum chemistry analysis.

[4] = system: Zucker Diabetic Fatty (ZDF) rats; test: Attenuation of cataractogenesis in Zucker Diabetic Fatty (ZDF) rats; type: in vivo; conditions: 100 mg/kg daily oral, 10 weeks
Text: Cataracts are one of the leading causes of progressive vision decline and blindness associated with ageing and diabetes, and the Zucker diabetic fatty (ZDF) model has many similarities with human cataractogenesis, including biochemical changes and oxidative stress in the lens. These rats, however, undergo cataractogenesis typically between 14-16 weeks of age.
Male ZDF rats and their aged-match Zucker lean (ZL) counterparts (fa/+ or +/+) were obtained from Genetic Models, Inc. (Indianapolis, Ind.) aged 12 weeks and acclimatized for 1 week prior to study. […] Treatment cohorts were given a daily oral dose of vehicle and 100 mg/kg of BI or BH for 10 weeks. […] At the end of the treatment period 100 μl of venous blood was collected (usually 10:00 A.M.) in a heparinized tube from the tail vein for serum chemistry analysis (Anilytics, Inc., Gaithersburg, Md.). […] Plasma insulin was measured by an electrochemiluminescent immunoassay, ECL (Origen Analyzer, Igen, Inc., Gaithersburg, Md.). The animals were sacrificed and tissues and/or organs (lens and liver) were extirpated, weighed (wet weight) and processed for biochemical analyses. Malondialdehyde (MDA), a major product of lipid peroxidation was assayed in lenses according to Ohkawa et al (1979), Analytical Biochem 95, 351-358).

[5] = system: high fat-fed C57Bl/6J mice; test: Circulating triglycerides, free fatty acids, insulin and leptin in high fat-fed C57Bl/6J mice; type: in vivo; conditions: for Free Fatty Acids / Triglycerides: after 2 weeks of drug treatments
Text: The high fat-fed mouse is a model for the hypertriglyceridemia and high circulating fatty acid levels, and the insulin and leptin resistance that are found in people at risk for and with obesity, diabetes, cardiovascular disease and other disorders. Male C57Bl/6J mice, approximately 8 weeks of age, were randomly assigned into groups of 6 animals. […] Mice were fed a high-fat diet (diet number D12451, containing 45% of calories as fat (Research Diets, New Brunswick, N.J.)) for 6 weeks. […]

[6] = system: mice with lethal insulin-dependent diabetes; test: Survival of mice with lethal insulin-dependent diabetes (single dose streptozotocin); type: in vivo, Balb/C mice; conditions: 30 mg/kg/day oral gavage
Method: Female Balb/C mice (14 weeks old) were treated with a single dose of streptozotocin (175 mg/kg i.p.) to induce severe insulin-dependent diabetes. Seven days later, mice were divided into three treatment groups: Compound AH, pioglitazone, and vehicle. Mice were treated daily via oral gavage, and survival was monitored over time.

ob/ob mice = test: Hyperglycemia, hyperlipidemia, fatty liver disease and weight gain in ob/ob obese diabetic mice, daily oral dosing; type: in vivo, C57BL/6 mice; conditions: for Free Fatty Acids ± SEM / Glucose ± SEM / Triglycerides ± SEM / ALT (U/L) ± SEM / AST (U/L) ± SEM / SDH (U/L) ± SEM: 4 weeks; for Mean body weight gain (grams): four week treatment period; for ALT (U/L) ± SEM / AST (U/L) ± SEM / SDH (U/L) ± SEM: serum
Text: Ob/ob mice have a defect in the gene for leptin, a protein involved in appetite regulation and energy metabolism, and are hyperphagic, obese, and insulin resistant. They develop hyperglycemia and fatty liver.

db/db mice [7] = test: Antidiabetic effects in db/db mice, four weeks of daily oral dosing; type: in vivo; conditions: 100 mg/kg daily oral, four weeks
Text: Db/db mice have a defect in leptin signaling, leading to hyperphagia, obesity and diabetes. Moreover, unlike ob/ob mice which have relatively robust islets, their insulin-producing pancreatic islet cells undergo failure during chronic hyperglycemia, so that they transition from hyperinsulinemia (associated with peripheral insulin resistance) to hypoinsulinemic diabetes.
as §1, with “Male db/db mice were given daily oral treatments with vehicle (0.75% hydroxypropylmethylcellulose) or antidiabetic compounds as indicated below. Blood” for “Blood”
The dose of pioglitazone used in this experiment was reported in the literature to be a maximally-effective dose for treatment of db/db mice (Shimaya et al. (2000), Metabolism 49:411-7).

[8] = 150 mg/kg, 8 weeks of treatment
[9] = nonfasting, 100 mg/kg daily oral
[10] = serum, daily oral, dose per Table 12: 100 mg/kg

Cc1cccc(C)c1COc1cccc(C(=O)CCC(=O)O)c1 [Compound BI, 4-(3-(2,6-Dimethylbenzyloxy)phenyl)-4-oxobutyric acid]
Glucose (db/db mice [1]; [8]): 254 ± 30 mg/dL | Triglycerides (db/db mice [1]; [8]): 99 ± 8 mg/dL | blood glucose and triglycerides compared to vehicle-treated controls (db/db mice [1]; after 8 weeks of treatment): significantly lower | Glucose (db/db mice [2]; 100 mg/kg daily oral): 423 ± 53 mg/dL | Glucose (% of Control) (db/db mice [2]; 100 mg/kg daily oral): 67 ± 8 % of Control | Glucose (db/db mice [2]; 150 mg/kg daily oral): 279 ± 35 mg/dL | Glucose (% of Control) (db/db mice [2]; 150 mg/kg daily oral): 44 ± 6 % of Control | Free Fatty Acids ± SEM (db/db mice [2]; 100 mg/kg daily oral): 2999.9 ± 98.7 µM | Triglycerides ± SEM (db/db mice [2]; 100 mg/kg daily oral): 134.0 ± 13.1 mg/dL | Free Fatty Acids ± SEM (db/db mice [2]; 150 mg/kg daily oral): 2234.0 ± 162.6 µM | Triglycerides ± SEM (db/db mice [2]; 150 mg/kg daily oral): 103.6 ± 8.3 mg/dL | Glucose (db/db mice [3]; [9]): 347.0 ± 43.1 mg/dL | Glucose (% of Control) (db/db mice [3]; [9]): 50 ± 6 % of Control | Free Fatty Acids ± SEM (db/db mice [3]; [10]): 1997.2 ± 196.4 µM | Triglycerides ± SEM (db/db mice [3]; [10]): 77.8 ± 5.3 mg/dL | % Protection Left Eye [4]: 50% | % Protection Right Eye [4]: 83% | Cataract Formation Left Eye [4]: 3/6 | Cataract Formation Right Eye [4]: 1/6 | Lenticular MDA ([4]; means ± SEM): 0.8 ± 0.1 nmol/g lens | Size (mm) Left Lens ([4]; means ± SEM): 3.4 ± 0.2 mm | Size (mm) Right Lens ([4]; means ± SEM): 3.8 ± 0.1 mm | Weight (mg) Left Lens ([4]; means ± SEM): 38.1 ± 7.3 mg | Weight (mg) Right Lens ([4]; means ± SEM): 54.9 ± 1.2 mg | Free Fatty Acids ([5]; 10 mg/kg oral gavage): 1227 ± 193.7 µmol/L | Triglycerides ([5]; 10 mg/kg oral gavage): 68.8 ± 5.7 mg/dL | Free Fatty Acids ([5]; 30 mg/kg oral gavage): 1292 ± 231.4 µmol/L | Triglycerides ([5]; 30 mg/kg oral gavage): 66.5 ± 14.7 mg/dL | Free Fatty Acids ([5]; 100 mg/kg oral gavage): 992.8 ± 172.1 µmol/L | Triglycerides ([5]; 100 mg/kg oral gavage): 37.4 ± 8.3 mg/dL | serum triglycerides and free fatty acids ([5]; oral gavage): effective at lowering | insulin serum levels ([5]; oral gavage, after 4 weeks of drug treatments (FIG. 1)): effective at lowering | leptin serum levels ([5]; oral gavage, after 4 weeks of drug treatments (FIG. 2)): effective at lowering

CCc1ccc(CCOc2ccc(CC3SC(=O)NC3=O)cc2)nc1 (stereo not drawn) [Pioglitazone, pioglitazone, reference compound]
body weight lost by survivors at 12 weeks [6]: 15-20% | Survivors (Survival at 12 weeks) ([6]; STZ 175 mg/kg i.p. Balb/C mice): 2/5 | Free Fatty Acids ± SEM (ob/ob mice; 30 mg/kg/day oral): 2606 ± 139.2 µmol/L | Glucose ± SEM (ob/ob mice; 30 mg/kg/day oral): 188.2 ± 21.4 mg/dL | Triglycerides ± SEM (ob/ob mice; 30 mg/kg/day oral): 111.2 ± 7.5 mg/dL | Mean body weight gain (grams) (ob/ob mice; 30 mg/kg/day): +10.0 grams | Free Fatty Acids ± SEM (ob/ob mice; 100 mg/kg/day oral): 1983.4 ± 66.1 µmol/L | Glucose ± SEM (ob/ob mice; 100 mg/kg/day oral): 174.6 ± 11.5 mg/dL | Triglycerides ± SEM (ob/ob mice; 100 mg/kg/day oral): 95.2 ± 4.8 mg/dL | Mean body weight gain (grams) (ob/ob mice; 100 mg/kg/day): +13.6 grams | ALT (U/L) ± SEM (ob/ob mice; 30 mg/kg/day oral): 713.6 ± 80.6 U/L | AST (U/L) ± SEM (ob/ob mice; 30 mg/kg/day oral): 1024 ± 88.7 U/L | SDH (U/L) ± SEM (ob/ob mice; 30 mg/kg/day oral): 782.0 ± 70.6 U/L | ALT (U/L) ± SEM (ob/ob mice; 100 mg/kg/day oral): 646.0 ± 56.1 U/L | AST (U/L) ± SEM (ob/ob mice; 100 mg/kg/day oral): 901.0 ± 49.3 U/L | SDH (U/L) ± SEM (ob/ob mice; 100 mg/kg/day oral): 603.0 ± 27.3 U/L | Glucose (db/db mice [7]): 558 ± 28 mg/dL | Glucose (% of Control) (db/db mice [7]): 99 ± 5 % of Control
